On the set-up of data set [1]: method as in PMID 23334925. As to conditions: following ip dosing; cited from earlier work.
Another data set relates to Bcrp. Also noted: method as in PMID 15930306. To be noted: read-out: EC50 (Bcrp inhibition); cited from earlier work.
The subject of data set [2] is orthotopic GBM1A tumors. In kind it is in vivo. To be noted: 10 mg/kg ip each drug once every 4 days for 28 days. Here is the method:
Female NSG mice were intracranially implanted with 500,000 luciferase expressing GBM1A cells (transduced with lentiviral particles expressing GFP-Luciferase). After 7 days, animals were randomized into four groups and ip administered with microemulsion vehicle, 10 mg/kg elacridar, 10 mg/kg ispinesib, or a combination of 10 mg/kg ispinesib and 10 mg/kg elacridar, once every 4 days for 28 days (n = 10). The dosing schedule of once every 4 days was based on our previously publication with ispinesib. Tumor growth was monitored by bioluminescence imaging and animals were followed for survival.
The progression of tumor growth was monitored by bioluminescence imaging (BLI) using an IVIS system. Mice that underwent stereotactic injection with GFP-luciferase expressing GBM1A cells were imaged twice a week. Ten minutes prior to imaging, mice were intraperitoneally injected with d-luciferin at 75 mg/kg body weight (3 mL/kg injection volume). Animals were immobilized using 1.5% − 3.0% isoflurane provided by nose cones within the imager and were kept warm using a heated stage set at 37 °C during the imaging procedure. Following imaging for about 5 minutes, animals were removed from the IVIS chamber and monitored until they fully recovered from anesthesia.

The test system of another data set is P-gp. To be noted: read-out: EC50 (P-gp inhibition); cited from earlier work.
Data set [3] concerns orthotopic GBM1A tumors. Briefly: Pharmacodynamics: monopolar spindle formation in orthotopic GBM1A tumors. In kind it is in vivo, NSG mice. To be noted: single ip dose 10 mg/kg each drug; 8 hours. The method, then:
Female NSG mice were intracerebrally injected with 500,000 GBM1A cells at coordinates X = 1.5 mm, Y = 1.5 mm and Z = 2.5 mm relative to the bregma, and tumor growth was monitored by bioluminescence imaging. After 4 weeks (tumor size of about 2 × 10^9 photons/sec), animals were randomized to receive single ip dose of microemulsion vehicle, 10 mg/kg elacridar, 10 mg/kg ispinesib, or a combination of 10 mg/kg ispinesib and 10 mg/kg elacridar (n = 8–10). At 8 hours following treatment, mice were perfused and whole brains were isolated. The samples were processed for immunofluorescence by staining for tubulin with an alpha-tubulin antibody (Cell signaling, Cat#2125) and counter staining with DAPI for visualizing nuclei. Images were scanned and counted for cells with monopolar spindles.

Regarding `COc1cc2c(cc1OC)CN(CCc1ccc(NC(=O)c3cccc4c(=O)c5cccc(OC)c5[nH]c34)cc1)CC2` [Elacridar, N-[4-[2-(6,7-dimethoxy-3,4-dihydro-1H-isoquinolin-2-yl)ethyl]phenyl]-5-methoxy-9-oxo-10H-acridine-4-carboxamide], the half-life in data set [1] is 3.2 h. In addition, the EC50 with Bcrp is roughly 300 nM; in the data set on P-gp, […]. For the same molecule, the “tumor doubling time (bioluminescence, single exponential fit)” value with orthotopic GBM1A tumors [2] (days 7–37) was 6.2 days. Further, in the data set with orthotopic GBM1A tumors [2] (vehicle 61 days), the median survival is 62 days. The “monopolar spindles in tumor core (tubulin/DNA staining)” value in the data set with orthotopic GBM1A tumors [3] was “normal distribution of DNA”.

A word on the half-life: it is the time needed for the level to fall by half in the phase considered. As usually defined, the EC50 is the concentration needed to bring the measured effect to its halfway point.

(Values after publication PMC7162859 (Scientific Reports, 2020).)
